Laboratory results as given in US11767323B2, “Tricyclic pyridone compounds as JAK2 V617F inhibitors” (Incyte Corporation, priority 2020, dated 2023).

Experiments:
[1] = molecular target: catalytic domain (JH1, amino acids 826-1132) of human JAK2 (Homo sapiens (Human), UniProt O60674); assay: JAK2 LanthaScreen JH1 Binding Assay; conditions: JAK2 JH1 1.5 nM, 50 nM tracer, 2 hours at 25° C.; read-out: JH1 BIND IC50
Procedure: Example A. JAK2 LanthaScreen JH1 Binding Assay
JAK2 JH1 binding assay utilizes catalytic domain (JH1, amino acids 826-1132) of human JAK2 expressed as N-terminal FLAG-tagged, biotinylated protein in a baculovirus expression system (Carna Biosciences, Product #08-445-20N). The assay was conducted in black 384-well polystyrene plates in a final reaction volume of 20 μL. JAK2 JH1 (1.5 nM) was incubated with compounds (100 nL serially diluted in DMSO) in the presence of 50 nM Fluorescent JAK2-JH1 Tracer and 0.5 nM Streptavidin-Tb cryptate (Cisbio Part #610SATLB) in assay buffer (50 mM Tris, pH=7.5, 10 mM MgCl2, 0.01% Brij-35, 0.1% BSA, 1 mM EGTA, 5% Glycerol and 5 mM DTT). Non-specific binding was accessed in the presence of 2 mM ATP. After incubation for 2 hours at 25° C., LanthaScreen signals were read on a PHERAstar FS plate reader (BMG LABTECH). Data was analyzed with IDBS XLfit and GraphPad Prism 5.0 software using a four parameter dose response curve to determine IC50 for each compound.

[2] = molecular target: pseudo-kinase domain (JH2, amino-acids 536-812) of human Wild Type JAK2 (Homo sapiens (Human), UniProt O60674, F794H/W659A/W777A); assay: JAK2 LanthaScreen JH2-WT Binding Assay; conditions: JAK2 JH2-WT 0.145 nM, 50 nM tracer, 1 hour at 25° C.; read-out: JH2 BIND WT IC50
Sequence of pseudo-kinase domain (JH2, amino-acids 536-812) of human Wild Type JAK2 (O60674 536-812 W659A/W777A/F794H): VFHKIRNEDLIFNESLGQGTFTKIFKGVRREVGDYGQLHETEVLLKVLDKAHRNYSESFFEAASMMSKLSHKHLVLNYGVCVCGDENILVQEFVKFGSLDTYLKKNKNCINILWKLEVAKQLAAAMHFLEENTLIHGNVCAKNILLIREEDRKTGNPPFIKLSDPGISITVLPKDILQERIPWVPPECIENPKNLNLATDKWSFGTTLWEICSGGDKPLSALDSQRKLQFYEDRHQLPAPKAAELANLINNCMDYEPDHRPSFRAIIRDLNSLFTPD
Procedure: Example B. JAK2 LanthaScreen JH2-WT Binding Assay
(§1) JAK2 JH2-WT binding assay utilizes pseudo-kinase domain (JH2, amino-acids 536-812 with 3 surface mutations W659A, W777A, F794H) of human Wild Type JAK2 expressed as C-terminal His-Avi-tagged, biotinylated protein in a baculovirus expression system (BPS Bioscience, Catalog #79463). The assay was conducted in black 384-well polystyrene plates in a final reaction volume of 20 μL. JAK2 JH2-WT (0.145 nM) was incubated with compounds (100 nL serially diluted in DMSO) in the presence of 50 nM Fluorescent JAK2-JH2 Tracer (MedChem Express Catalog #HY-102055) and 0.25 nM Streptavidin-Tb cryptate (Cisbio Part #610SATLB) in assay buffer (50 mM Tris, pH=7.5, 10 mM MgCl2, 0.01% Brij-35, 0.1% BSA, 1 mM EGTA, 5% Glycerol and 5 mM DTT). Non-specific binding was accessed in the presence of 2 mM ATP. After incubation for 1 hour at 25° C., LanthaScreen signals were read on a PHERAstar FS plate reader (BMG LAB TECH). Data was analyzed with IDBS XLfit and GraphPad Prism 5.0 software using a four parameter dose response curve to determine IC50 for each compound.

[3] = molecular target: pseudo-kinase domain (JH2, amino-acids 536-812) of human V617F mutant JAK2 (Homo sapiens (Human), UniProt O60674, F794H/V617F/W659A/W777A); assay: JAK2 LanthaScreen JH2-V617F Binding Assay; conditions: JAK2 JH2-V617F 0.26 nM, 50 nM tracer, 1 hour at 25° C.; read-out: JH2 BIND V617F IC50
Sequence of pseudo-kinase domain (JH2, amino-acids 536-812) of human V617F mutant JAK2 (O60674 536-812 V617F/W659A/W777A/F794H): as the sequence (O60674 536-812 W659A/W777A/F794H) above, with V82F counted along it
Procedure: Example C. JAK2 LanthaScreen JH2-V617F Binding Assay
as §1, with “JH2-V617F” for “JH2-WT”, “V617F mutant” for “Wild Type”, “#79498).” for “#79463).”, “JH2-V617F (0.26” for “JH2-WT (0.145”, “LABTECH).” for “LAB TECH).”

[4] = molecular target: catalytic domain (JH1, amino acids 808-1132) of human JAK2 (Homo sapiens (Human), UniProt O60674); assay: JAK2 HTRF Enzyme Activity Assay; type: biochemical; conditions: JAK2 0.015 nM, ATP (30 μM or 1 mM), 60 minutes at 25° C.
Sequence of catalytic domain (JH1, amino acids 808-1132) of human JAK2 (O60674 808-1132): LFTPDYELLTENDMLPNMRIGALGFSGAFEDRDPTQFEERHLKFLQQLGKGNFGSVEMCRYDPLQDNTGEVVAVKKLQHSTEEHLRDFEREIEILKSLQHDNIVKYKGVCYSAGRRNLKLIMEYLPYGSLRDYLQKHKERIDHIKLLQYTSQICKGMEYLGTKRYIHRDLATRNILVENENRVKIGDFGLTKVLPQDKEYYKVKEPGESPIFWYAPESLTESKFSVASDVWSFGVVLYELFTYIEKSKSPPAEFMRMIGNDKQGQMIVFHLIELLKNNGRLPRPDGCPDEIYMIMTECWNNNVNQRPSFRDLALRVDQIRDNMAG
Procedure: Example D. JAK2 HTRF Enzyme Activity Assay
JAK2 enzyme activity assays utilize catalytic domain (JH1, amino acids 808-1132) of human JAK2 expressed as N-terminal His-tagged protein in a baculovirus expression system (BPS Bioscience, Catalog #40450). The assays was conducted in black 384-well polystyrene plates in a final reaction volume of 20 μL. JAK2 (0.015 nM) was incubated with compounds (100 nL serially diluted in DMSO) in the presence of ATP (30 μM or 1 mM) and 500 nM Biotin-labeled EQEDEPEGDYFEWLE (SEQ ID NO.: 1) peptide (BioSource International, custom synthesis) in assay buffer (50 mM Tris, pH=7.5, 10 mM MgCl2, 0.01% Brij-35, 0.1% BSA, 1 mM EGTA, 5% Glycerol and 5 mM DTT) for 60 minutes at 25° C. The reactions were stopped by the addition of 10 μL of detection buffer (50 mM Tris, pH 7.8, 0.5 mg/mL BSA, 150 mM NaCl), supplemented with EDTA, LANCE Eu-W1024 anti-phosphotyrosine (PY20), (PerkinElmer, Catalog #AD0067) and Streptavidin SureLight APC (PerkinElmer Catalog #CR130-100), for a final concentration of 15 mM, 1.5 nM and 75 nM, respectively. HTRF signals were read after 30 minutes incubation at room temperature on a PHERAstar FS plate reader (BMG LAB TECH). Data was analyzed with IDBS XLfit and GraphPad Prism 5.0 software using a four parameter dose response curve to determine IC50 for each compound.

Sequence of catalytic domain (JH1, amino acids 826-1132) of human JAK2 (O60674 826-1132): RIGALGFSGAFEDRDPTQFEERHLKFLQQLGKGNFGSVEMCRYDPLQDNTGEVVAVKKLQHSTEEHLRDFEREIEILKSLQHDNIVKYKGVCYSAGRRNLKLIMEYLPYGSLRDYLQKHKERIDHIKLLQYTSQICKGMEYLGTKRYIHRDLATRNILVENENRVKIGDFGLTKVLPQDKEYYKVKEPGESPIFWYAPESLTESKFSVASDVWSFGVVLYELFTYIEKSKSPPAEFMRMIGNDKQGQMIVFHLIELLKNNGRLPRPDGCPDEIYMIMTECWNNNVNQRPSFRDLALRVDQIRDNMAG

SMILES	IC50 [1] [nM]	IC50 [2] [nM]	IC50 [3] [nM]	IC50 [4] [nM]
Cc1cc(-c2c(-c3ccc(C(=O)Nc4ccc5oc(C)nc5c4)cc3)c3c4cc(-c5cnn(C)c5)[nH]c4ncc3n(C)c2=O)on1 [Example 26, 4-(6-Methyl-2-(1-methyl-1H-pyrazol-4-yl)-8-(3-methylisoxazol-5-yl)-7-oxo-6,7-dihydro-3H-pyrrolo[3,2-f][1,7]naphthyridin-9-yl)-A-(2-methylbenzo[d]oxazol-5-yl)benzamide]	100 to 500	≤ 100	≤ 100	100 to 500
COCc1ccc(-c2c(-c3cc(C)no3)c(=O)n(C)c3cnc4[nH]c(-c5cnn(C)c5)cc4c23)cc1 [Example 27, 9-(4-(Methoxymethyl)phenyl)-6-methyl-2-(1-methyl-1H-pyrazol-4-yl)-8-(3-methylisoxazol-5-yl)-3,6-dihydro-7H-pyrrolo[3,2-f][1,7]naphthyridin-7-one]	100 to 500	≤ 100	≤ 100	100 to 500
Cc1cc(-c2c(-c3ccc(CNC4CCCOC4)cc3)c3c4cc(-c5cnn(C)c5)[nH]c4ncc3n(C)c2=O)on1 (stereo not drawn) [Example 28, 6-Methyl-2-(1-methyl-1H-pyrazol-4-yl)-8-(3-methylisoxazol-5-yl)-9-(4-(((tetrahydro-2H-pyran-3-yl)amino)methyl)phenyl)-3,6-dihydro-7H-pyrrolo[3,2-f][1,7]naphthyridin-7-one]	100 to 500	≤ 100	≤ 100	100 to 500
COCCN(C)c1ccc(-c2c(-c3cc(C)no3)c(=O)n(C)c3cnc4[nH]c(-c5cnn(C)c5)cc4c23)cc1 [Example 29, 9-(4-((2-Methoxyethyl)(methyl)amino)phenyl)-6-methyl-2-(1-methyl-1H-pyrazol-4-yl)-8-(3-methylisoxazol-5-yl)-3,6-dihydro-7H-pyrrolo[3,2-f][1,7]naphthyridin-7-one]	100 to 500	≤ 100	≤ 100	100 to 500
Cc1cc(-c2c(-c3ccc(NC4CCOCC4)cc3)c3c4cc(-c5cnn(C)c5)[nH]c4ncc3n(C)c2=O)on1 [Example 30, 6-Methyl-2-(1-methyl-1H-pyrazol-4-yl)-8-(3-methylisoxazol-5-yl)-9-(4-((tetrahydro-2H-pyran-4-yl)amino)phenyl)-3,6-dihydro-7H-pyrrolo[3,2-f][1,7]naphthyridin-7-one]	500 to 1000	≤ 100	≤ 100	500 to 1000
Cc1cc(-c2c(-c3ccc(-c4cnn(C)c4C)cc3)c3c4cc(-c5cnn(C)c5)[nH]c4ncc3n(C)c2=O)on1 [Example 31, 9-(4-(1,5-Dimethyl-1H-pyrazol-4-yl)phenyl)-6-methyl-2-(1-methyl-1H-pyrazol-4-yl)-8-(3-methylisoxazol-5-yl)-3,6-dihydro-7H-pyrrolo[3,2-f][1,7]naphthyridin-7-one]	500 to 1000	≤ 100	≤ 100	500 to 1000
Cc1cc(-c2c(-c3ccc(-c4cnn(C)c4CO)cc3)c3c4cc(-c5cnn(C)c5)[nH]c4ncc3n(C)c2=O)on1 [Example 32, 9-(4-(5-(Hydroxymethyl)-1-methyl-1H-pyrazol-4-yl)phenyl)-6-methyl-2-(1-methyl-1H-pyrazol-4-yl)-8-(3-methylisoxazol-5-yl)-3,6-dihydro-7H-pyrrolo[3,2-f][1,7]naphthyridin-7-one]	100 to 500	≤ 100	≤ 100	100 to 500
Cc1cc(-c2c(C3CCN(S(C)(=O)=O)C3)c3c4cc(-c5cnn(C)c5)[nH]c4ncc3n(C)c2=O)on1 (stereo not drawn) [Example 33, 6-Methyl-2-(1-methyl-1H-pyrazol-4-yl)-8-(3-methylisoxazol-5-yl)-9-(1-(methylsulfonyl)pyrrolidin-3-yl)-3,6-dihydro-7H-pyrrolo[3,2-f][1,7]naphthyridin-7-one]	100 to 500	≤ 100	≤ 100	100 to 500
CN(C)C(=O)c1ccc(-c2c(-c3cnn(C)c3)[nH]c3ncc4c(cc(Nc5cccc(-c6nnn[nH]6)c5)c(=O)n4C)c23)cc1 [Example 34, 4-(8-((3-(1H-tetrazol-5-yl)phenyl)amino)-6-methyl-2-(1-methyl-1H-pyrazol-4-yl)-7-oxo-6,7-dihydro-3H-pyrrolo[3,2-f][1,7]naphthyridin-1-yl)-N,N-dimethylbenzamide]	100 to 500	≤ 100	≤ 100	100 to 500
CN(C)C(=O)c1ccc(-c2c(-c3cnn(C)c3)[nH]c3ncc4c(cc(Nc5ccc(Cc6nnn[nH]6)cc5)c(=O)n4C)c23)cc1 [Example 35, 4-(8-((4-((1H-tetrazol-5-yl)methyl)phenyl)amino)-6-methyl-2-(1-methyl-1H-pyrazol-4-yl)-7-oxo-6,7-dihydro-3H-pyrrolo[3,2-f][1,7]naphthyridin-1-yl)-N,N-dimethylbenzamide]	≤ 100	≤ 100	≤ 100	≤ 100
Cc1ccncc1-c1cc2c3c(-c4ccc(C(=O)N(C)C)cc4)c(-c4cnn(C)c4)[nH]c3ncc2n(C)c1=O [Example 36, N,N-dimethyl-4-(6-methyl-2-(1-methyl-1H-pyrazol-4-yl)-8-(4-methylpyridin-3-yl)-7-oxo-6,7-dihydro-3H-pyrrolo[3,2-f][1,7]naphthyridin-1-yl)benzamide]	≤ 100	≤ 100	≤ 100	≤ 100
CC(=O)N1CC[C@H](c2cc3c4c(-c5ccccc5)c(-c5ccc(CN6CCC(S(C)(=O)=O)CC6)cc5)[nH]c4ncc3n(C)c2=O)C1 [Example 37, (R)-8-(1-acetylpyrrolidin-3-yl)-6-methyl-2-(4-((4-(methylsulfonyl)piperidin-1-yl)methyl)phenyl)-1-phenyl-3,6-dihydro-7/7-pyrrolo[3,2-f][1,7]naphthyridin-7-one]	≤ 100	≤ 100	≤ 100	≤ 100
